From patent US4681754A, “Counteracting cyclosporin organ toxicity” (Sandoz Ltd., priority 1984, dated 1987)

Tests used:
Type in all cases: in vivo
rats (F344×WF)FI = assay: Test 1: immuno-suppressive activity, local graft-versus-host (GVH) reaction in the rat; details: Cyclosporine alone p.o. on 4 successive days
Description: The test is carried out employing rats (F344×WF)FI sensibilized by injection into the hind-foot of spleen cells taken from .female. Wistar-Furth (WF) rats. The test animals are divided into groups of 8. […] GVH reaction is determined by measurement of increase in lymphe node weight compared with untreated controls.

OFI mice = assay: Test 2: immuno-suppressive activity, anti-body producing cell development in the mouse (PFC test); details: Cyclosporine alone p.o. on 3 successive days
Description: The test is carried out employing .female. OFI mice sensibilized by i.v. administration of ca. 1×10^8 sheep erythrocytes (SRBC). The test animals are divided into groups of 5.
The spleens are removed on day 4 and a cell suspension prepared and incubated with fresh SRBC antigen on soft agar. After addition of compliment, which, together with anti-body secreted from the sensibilized cells, dissolves SRBC in the vicinity of secreting cells, plaque development is counted and compared with results obtained employing untreated control mice.

OFA rats = assay: Test 3: anti-inflammatory activity, adjuvant arthritis in the rat; details: Cyclosporine alone p.o./day for 14 days
Description: For this test adjuvant arthritis is induced in accordance with the method described by Pearson and Wood, "Arthr. Rheum." 2, 440 (1959). OFA .female. rats are employed as test animals. […] Administration is effected in all cases on successive days for 14 days starting on day 1 after antigen administration and inflammatory reaction is determined on day 19 after antigen administration.

For Cyclosporine, the “ED50 for Cyclosporine, GVH reaction (increase in lymph node weight)” value (rats (F344×WF)FI) was 27 mg/kg, the “ED50 for Cyclosporine, PFC test (plaque development)” value (OFI mice) was 40 mg/kg and the “ED50 for Cyclosporine, adjuvant arthritis (inflammatory reaction day 19)” value (OFA rats) was 4.2 mg/kg.
